# Experimental data from US5049552A, “Compositions containing hexadecylphosphocholine and use thereof” (Max-Planck-Gesellschaft fur Foerderung der Wissenschaften …, priority 1985, dated 1991).
# Like-named read-outs stand apart in the source and are kept apart here.
# Assays:
# tumors = test: anti-tumor action and toxicity, general statement (homologous alkyl compounds); conditions: for anti-tumor action / toxicity: general statement
# [1] = subacute toxicity during a treatment of 5 weeks (mortality, median survival time); assay type: in vivo, rat
# Excerpt: (§1) Hexadecylphosphocholine is a known substance. […] Therefore, in spite of an anti-tumor action, the median survival time in comparison with the control was shortened by 72% in the case of octadecylphosphocholine-treated animals.
# [2] = test system: chemically induced mammary carcinomas; test: chemically induced mammary carcinoma of the rat (7,12-dimethylbenzanthracene or methylnitrosourea), in vivo; conditions: for minimal effective dose / effect on tumor growth / general dose range for the action / general dose range for the action, especially: rat; for minimal effective dose: read-out: lowest already effective dose
# Excerpt: For oral administration, hexadecylphosphocholine is used, for example, in the form of a potable solution. As carriers there are suitable, for example, milk, cocoa, fruit juice or drinking water. The preparation of such a potable solution takes place, for example, by dilution of a concentrated alcoholic solution of hexadecylphosphocholine with water or another of the previously mentioned agents. […] In the case of the tumor model used for these experiments, it is a question of a so-called hard model. This means that findings obtained with this model can also be transmitted to the human situation.
# [3] = test system: 7,12-dimethylbenzanthracene-induced mammary carcinoma; test: 7,12-dimethylbenzanthracene-induced mammary carcinoma of the rat; assay type: in vivo
# [4] = test system: methylnitrosourea-induced mammary carcinoma; test: methylnitrosourea-induced mammary carcinoma of the rat, in vivo
# Excerpt: as §1
# [5] = Pharmazie 37, 1982, pages 706-707; cited from earlier work
# L1210 = L1210 colony experiment in vitro; assay type: cell-based
# [6] = 5 weeks, daily dose 77 μmole/kg rat orally
smiles,measurement,setting,value
CCCCCCCCCCCCCCCCOP(=O)([O-])OCC[N+](C)(C)C [hexadecylphosphocholine],anti-tumor action,tumors,practically useful good anti-tumor action
same,toxicity,tumors,sufficient anti-tumor action in non-toxic doses
same,anti-tumor action,tumors; listed as Hexadecylphosphocholine,excellent anti-tumor action
same,synergistic increase of antitumor action with alkylglycerols / glycerol ethers of formula I,tumors; hexadecylphosphocholine together with alkylglycerol,synergistic action increase of the antitumor action
same,mortality in comparison with octadecylphosphocholine-treated animals,[1]; [6],lower by a half
same,increase of the median survival time in comparison with the controls,"[1]; 5 weeks, highly significant",26%
same,chronic toxicity,"[1]; rat, oral",absence of a chronic toxicity
same,minimal effective dose,"[2]; iv, intravenously",5 mg/kg
same,minimal effective dose,"[2]; po, orally",5 mg/kg
same,effect on tumor growth,[2]; 10 mg./kg. body weight,cessation of growth of the tumors
same,effect on tumor growth,[2]; doses higher than 10 mg./kg.,complete disappearance of the growths
same,general dose range for the action,[2]; intravenously,5 to 50 mg/kg
same,"general dose range for the action, especially",[2]; intravenously,15 to 32 mg/kg
same,general dose range for the action,[2]; orally,5 to 50 mg/kg
same,"general dose range for the action, especially",[2]; orally,15 to 32 mg/kg
same,remission of chemically induced mammary carcinomas,"[2]; rats, daily doses of 20, 40 and 60 mg./kg., oral",complete remission
same,compatibility versus 1-octadecyl-2-methyl-rac-glycero-3-phosphocholine,"[2]; rats, oral",better compatible
same,effectiveness versus 1-octadecyl-2-methyl-rac-glycero-3-phosphocholine,"[2]; rats, oral",better effective
same,"action on 7,12-dimethylbenzanthracene-induced mammary carcinoma",[3],good action
same,action on methylnitrosourea-induced mammary carcinoma,[4]; rat,good action
same,lysing and fusogenic action,[5],a lysing and fusogenic action
"CCCCCCCCCCCCCCCCCCOP(=O)([O-])OCC[N+](C)(C)C [octadecylphosphocholine, reference compound]",anti-tumor action,tumors,anti-tumor effective
same,toxicity,tumors,far too toxic
same,shortening of median survival time in comparison with the control,[1]; [6],72%
same,mortality at 840 h,"[1]; in vivo, po, 77 umol/kg, 5 weeks, daily dose 77 μmole/kg rat orally, read-out: mortality (of all animals)",80%
"CCCCCCCCCCCCCCOP(=O)([O-])OCC[N+](C)(C)C [tetradecylphosphocholine, reference compound]",anti-tumor action,L1210,practically no anti-tumor action
same,anti-tumor action,"[4]; in vivo, autochthonous methylnitrosourea-induced mammary carcinoma of the rat",practically no anti-tumor action
